Laboratory results published in patent US8198311B2, “Modulators of glucocorticoid receptor, AP-1, and/or NF-κB activity and use thereof” (Bristol-Myers Squibb Company, priority 2006, dated 2012).

Experiments:
[1] = biological target: T1, human full-length glucocorticoid receptor (Homo sapiens, UniProt P04150); experiment: Glucocorticoid Receptor Binding Assay (II), fluorescence polarization competitor kit (Fluormone GS1); conditions: cell lysate with recombinant human full-length GR
T1 construct: recombinantly expressed human full-length glucocorticoid receptor; purchased PanVera Co., Madison, Wis; P2816
T1 sequence (P04150 1-777): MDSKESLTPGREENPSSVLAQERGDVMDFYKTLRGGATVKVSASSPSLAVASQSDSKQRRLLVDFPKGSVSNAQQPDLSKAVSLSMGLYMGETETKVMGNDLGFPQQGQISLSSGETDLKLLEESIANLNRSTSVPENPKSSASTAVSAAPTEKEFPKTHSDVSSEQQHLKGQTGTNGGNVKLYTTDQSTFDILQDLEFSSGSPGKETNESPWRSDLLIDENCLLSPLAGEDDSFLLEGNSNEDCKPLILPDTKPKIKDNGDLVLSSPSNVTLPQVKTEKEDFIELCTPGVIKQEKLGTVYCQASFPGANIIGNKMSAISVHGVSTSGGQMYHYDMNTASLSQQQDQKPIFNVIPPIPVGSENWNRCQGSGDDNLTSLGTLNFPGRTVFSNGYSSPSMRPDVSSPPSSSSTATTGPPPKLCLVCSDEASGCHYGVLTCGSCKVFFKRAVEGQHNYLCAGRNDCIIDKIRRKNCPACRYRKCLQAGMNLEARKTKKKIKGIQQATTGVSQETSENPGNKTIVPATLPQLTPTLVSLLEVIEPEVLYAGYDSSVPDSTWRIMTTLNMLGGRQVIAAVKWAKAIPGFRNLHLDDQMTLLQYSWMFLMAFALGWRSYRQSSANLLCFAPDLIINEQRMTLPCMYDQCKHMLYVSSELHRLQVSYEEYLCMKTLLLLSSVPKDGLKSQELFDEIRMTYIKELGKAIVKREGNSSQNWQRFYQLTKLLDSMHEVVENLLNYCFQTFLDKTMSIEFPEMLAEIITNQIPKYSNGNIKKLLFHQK
Description: In order to measure the binding of compounds on the glucocorticoid receptor a commercially available kit was used (Glucocorticoid receptor competitor assay kit, PanVera Co., Madison, Wis., P2816). Briefly, a cell lysate containing recombinantly expressed human full-length glucocorticoid receptor was mixed with a fluorescently labeled glucocorticoid (1 nM Fluormone GS1) in the presence or absence of test compound. After one hour at room temperature, the fluorescence polarization (FP) of the samples were measured. […] Test molecules were analyzed in the concentration range from 2.4 nM to 40 microMolar.

[2] = biological target: T2, human glucocorticoid receptor (Homo sapiens, UniProt P04150); experiment: Glucocorticoid Receptor Binding Assay (I), fluorescence polarization competitor kit (Fluormone GS Red); conditions: purified human recombinant full-length GR
T2 construct: purified human recombinant full-length glucocorticoid receptor (2 nM); purchased Invitrogen Part # 2893
T2 sequence (P04150 1-777): T1 sequence (P04150 1-777)
Outline: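 Fluorescence polarization competition: full-length recombinant human GR (2 nM) incubated with 1 nM Fluormone GS Red plus test compound (8.5E-05 to 5 μM) for 2 h at room temperature in the dark before FP read-out.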

[3] = system: AP-1 induced transcriptional activity; experiment: Cellular Transrepressional Assay (AP-1 luciferase reporter in A549 cells, PMA-activated); type: cell-based; conditions: Homo sapiens, A549, 7 h, pAP-1-Luc, 10 ng/ml PMA, read-out: AP-1 (EC50, nM) (Cellular Transrepression Assay)
Outline: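 A549 cells stably carrying a 7×AP-1-luciferase reporter, stimulated with 10 ng/ml PMA with or without compound (0.1 nM-40 μM) for 7 h. Luciferase luminescence read 10 min after reagent addition; repression is percentage decrease of PMA-alone signal, EC50 by curve fitting.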

CC(O)C(C)(C)C(c1ccccc1)c1ccc2c(cnn2-c2ccc(F)cc2)c1 (mixture of isomers) [Example 119, 4-(1-(4-Fluorophenyl)-1H-indazol-5-yl)-3,3-dimethyl-4-phenylbutan-2-ol]
Ki [1]: 26 nM
Ki [2]: 53 nM
EC50 [3]: > 10000 nM

CC(C)CC(c1ccc2c(cnn2-c2ccc(F)cc2)c1)C(C)(C)CNC(=O)NC1CC1 (centres unmarked) [Example 26, 1-cyclopropyl-3-(3-(1-(4-fluorophenyl)-1H-indazol-5-yl)-2,2,5-trimethylhexyl)urea]
Ki [1]: 8.6 nM
Ki [2]: 3.1 nM
EC50 [3]: 965 nM

CC(C)(CNC(=O)NCC(F)(F)F)[C@@H](c1ccccc1)c1ccc2c(cnn2-c2ccc(F)cc2)c1 [Example 8, (S)-1-(3-(1-(4-fluorophenyl)-1H-indazol-5-yl)-2,2-dimethyl-3-phenylpropyl)-3-(2,2,2-trifluoroethyl)urea]
Ki [1]: 9 nM
Ki [2]: 17 nM
EC50 [3]: 48 nM

CC(C)(C(c1ccccc1)c1ccc2c(cnn2-c2ccc(F)cc2)c1)C(O)C1CC1 (centres unmarked) [Example 122, 1-cyclopropyl-3-(1-(4-fluorophenyl)-1H-indazol-5-yl)-2,2-dimethyl-3-phenylpropan-1-ol]
Ki [1]: 34 nM
Ki [2]: 37 nM
EC50 [3]: > 10000 nM

CC(C)CC(c1ccc2c(cnn2-c2ccc(F)cc2)c1)C(C)(C)CNC(=O)NC(C)(C)CO (centres unmarked) [Example 29, 1-(3-(1-(4-fluorophenyl)-1H-indazol-5-yl)-2,2,5-trimethylhexyl)-3-(1-hydroxy-2-methylpropan-2-yl)urea]
Ki [1]: 8 nM
Ki [2]: 2.5 nM
EC50 [3]: 86 nM

CC(C)(C)NC(=O)NCC(C)(C)[C@@H](c1ccccc1)c1ccc2c(cnn2-c2ccc(F)cc2)c1 [Example 9, (S)-1-tert-butyl-3-(3-(1-(4-fluorophenyl)-1H-indazol-5-yl)-2,2-dimethyl-3-phenylpropyl)urea]
Ki [1]: 5.6 nM
Ki [2]: 8.3 nM
EC50 [3]: 29 nM

CC(C)CC(c1ccc2c(cnn2-c2ccc(F)cc2)c1)C(C)(C)CNC(=O)NC(C)C (centres unmarked) [Example 34, 1-(3-(1-(4-fluorophenyl)-1H-indazol-5-yl)-2,2,5-trimethylhexyl)-3-isopropylurea]
Ki [1]: 7.1 nM
Ki [2]: 1.1 nM
EC50 [3]: 129 nM

CC(C)CC(c1ccc2c(cnn2-c2ccc(F)cc2)c1)C(C)(C)CNC(=O)OCC(F)(F)F (centres unmarked) [Example 60, 2,2,2-trifluoroethyl 3-(1-(4-fluorophenyl)-1H-indazol-5-yl)-2,2,5-trimethylhexylcarbamate]
Ki [1]: 24 nM
Ki [2]: 41 nM
EC50 [3]: 234 nM

CC(C)CC(c1ccc2c(cnn2-c2ccc(F)cc2)c1)C(C)(C)CNC(=O)NC(C)(C)CN1CCCCC1 (centres unmarked) [Example 32, 1-(3-(1-(4-fluorophenyl)-1H-indazol-5-yl)-2,2,5-trimethylhexyl)-3-(2-methyl-1-(piperidin-1-yl)propan-2-yl)urea]
Ki [1]: 452 nM
Ki [2]: 73 nM
EC50 [3]: > 10000 nM

CC(C)CC(c1ccc2c(cnn2-c2ccc(F)cc2)c1)C(C)(C)CNC(=O)N1CCCC(C)(C)C1 (centres unmarked) [Example 30, N-(3-(1-(4-fluorophenyl)-1H-indazol-5-yl)-2,2,5-trimethylhexyl)-3,3-dimethylpiperidine-1-carboxamide]
Ki [1]: 27 nM
Ki [2]: 8.5 nM
EC50 [3]: > 10000 nM

CC(C)CC(c1ccc2c(cnn2-c2ccc(F)cc2)c1)C(C)(C)CNC(=O)NC1CCC1 (centres unmarked) [Example 27, 1-cyclobutyl-3-(3-(1-(4-fluorophenyl)-1H-indazol-5-yl)-2,2,5-trimethylhexyl)urea]
Ki [1]: 6.4 nM
Ki [2]: 4.6 nM
EC50 [3]: 219 nM

CC(C)CC(c1ccc2c(cnn2-c2ccc(F)cc2)c1)C(C)(C)CNC(=O)NC(C)(C)C (centres unmarked) [Example 28, 1-tert-butyl-3-(3-(1-(4-fluorophenyl)-1H-indazol-5-yl)-2,2,5-trimethylhexyl)urea]
Ki [1]: 4.9 nM
Ki [2]: 4.2 nM
EC50 [3]: 21 nM

CC(C)CC(c1ccc2c(cnn2-c2ccc(F)cc2)c1)C(C)(C)CNC(=O)N(C)C(C)(C)C (centres unmarked) [Example 31, 1-tert-butyl-3-(3-(1-(4-fluorophenyl)-1H-indazol-5-yl)-2,2,5-trimethylhexyl)-1-methylurea]
Ki [1]: 19 nM
Ki [2]: 28 nM
EC50 [3]: 394 nM

CC(C)CC(c1ccc2c(cnn2-c2ccc(F)cc2)c1)C(C)(C)CNS(=O)(=O)CC(F)(F)F (single isomer, unassigned) [Example 57A, 2,2,2-trifluoro-N-(3-(1-(4-fluorophenyl)-1H-indazol-5-yl)-2,2,5-trimethylhexyl)-ethanesulfonamide]
Ki [1]: 59 nM
EC50 [3]: > 10000 nM

CC(C)(CNC(=O)Cc1cccs1)[C@H](c1ccccc1)c1ccc2c(cnn2-c2ccc(F)cc2)c1 [Example 21, (R)-N-(3-(1-(4-fluorophenyl)-1H-indazol-5-yl)-2,2-dimethyl-3-phenylpropyl)-2-(thiophen-2-yl)acetamide]
Ki [1]: 39 nM
EC50 [3]: 266 nM

CC(C)(C(c1ccccc1)c1ccc2c(cnn2-c2ccc(F)cc2)c1)C(C)(O)C(F)(F)F (mixture of isomers) [Example 128, 1,1,1-Trifluoro-4-(1-(4-fluorophenyl)-1H-indazol-5-yl)-2,3,3-trimethyl-4-phenylbutan-2-ol]
Ki [1]: 16 nM
EC50 [3]: > 10000 nM

O=S(=O)(CC(F)(F)F)NCC1CC1(c1ccccc1)c1ccc2c(cnn2-c2ccc(F)cc2)c1 (centres unmarked) [Example 89, 2,2,2-trifluoro-N-((2-(1-(4-fluorophenyl)-1H-indazol-5-yl)-2-phenylcyclopropyl)methyl)ethanesulfonamide]
Ki [1]: 43 nM
EC50 [3]: > 10000 nM
